Where two headings read alike, the source gives them in different places.
What was measured:
[1] = parameters: method as in PMID 8853931; settings: lactone moiety converted to carboxylated open-ring form; cited from earlier work
in vivo = settings: male, Sprague-Dawley, rat, po, 20 mg/kg
Procedure: (§1) For PK studies, the carotid artery in healthy SD rats (male, 7‒8 weeks, 220‒298 g) was catheterized one day before drug administration [29, 30, 31, 32]. Four to six rats were grouped for the oral administration of TPT (20 mg/kg) with or without compounds (2 mg/kg) in the modified Taxol® formulation and the same dose of TPT in saline only.
(§2) The samples were chromatographically separated using a Capcell Pak C18 UG120 column (4.6 mm × 250 mm, 5 μm, Osaka Soda Co. Ltd., Osaka, Japan) with the mobile phase composed of 10 mM phosphate buffer containing 1% triethylamine (TEA) (pH 3.5) and methanol containing 1% TEA (pH 6.5) (56/44, v/v) at a flow rate of 1.0 mL/min for 30 min and detected at an excitation wavelength of 381 nm and an emission wavelength of 527 nm. The injection volume was 50 μL.
(§3) Pheonix WinNonlin® software (version 8.1, Pharsight Corporation, Mountain View, CA, USA) was used to estimate the PK parameters following oral TPT administration to rats. Non-compartmental analysis was performed using the plasma TPT concentration–time profiles to obtain the following PK parameters: area under the plasma concentration–time curve from zero to infinity (AUCINF), elimination half-life (t1/2), apparent volume of distribution after oral administration (Vd/F), and total oral clearance (Clt/F). The maximum plasma concentration (Cmax) and the time required to reach Cmax (Tmax) were directly measured from the plasma TPT concentration–time curve. The relative BA (RB) of TPT was calculated using the Equation (1):RB (%) = (AUCINF po co-administration)/(AUCINF po control) × 100(1)

[2] = parameters: method as in PMID 8853931; settings: humans; cited from earlier work
[3] = Pharmacokinetics of oral TPT in rats with or without dual inhibitor candidates or formulation; settings: male, Sprague-Dawley, rat, in vivo, 20 mg/kg
Procedure: as §1, §2, §3

[4] = system: CYP1A2, CYP2A6, CYP2C8/9, CYP2C19, CYP2D6, CYP2E, CYP3A, or CYP4A; parameters: method as in earlier work; settings: According to GlaxoSmithKline; cited from earlier work
[5] = in vivo, 10 mg/kg; cited from earlier work
P-gp [6] = molecular target: T1, P-gp (Homo sapiens, UniProt P08183); settings: 10 μM DNR, 30 min, vs DNR-only control; zosuquidar 1 μM
Procedure: In this study, the cells were treated with TPT or DNR after incubation with the P-gp and/or BCRP inhibitor candidates or with the excipients for 5 min. When the incubation was complete, the medium containing the substrate and inhibitor candidate or excipient was removed, and the cells were resuspended in cold phosphate buffer saline (PBS) (500 μL). […] The mean fluorescence intensity values were calculated, and at least three independent biological duplicates were performed.
Substrate Drug Accumulation Study by Flow Cytometry
N.Y.; Sivaraman, A.; Naik, R.; Jin, μL) with 10 μM DNR in the presence and/or absence of 1 μM zosuquidar for 30 min or
TPT accumulation in cells resuspended in cold PBS

P-gp [7] = molecular target: T1, P-gp; assay: TPT accumulation by flow cytometry in P-gp-overexpressing MCF-7/ADR cells; settings: 200 μM TPT, 30 min, vs TPT-only; zosuquidar/Ko143 1 μM
Procedure: In this study, the cells were treated with TPT or DNR after incubation with the P-gp and/or BCRP inhibitor candidates or with the excipients for 5 min. When the incubation was complete, the medium containing the substrate and inhibitor candidate or excipient was removed, and the cells were resuspended in cold phosphate buffer saline (PBS) (500 μL). TPT accumulation in the cells was measured using a flow cytometer (NovoCyte 2060R, ACEA Biosciences Inc., San Diego, CA, USA). The mean fluorescence intensity values were calculated, and at least three independent biological duplicates were performed.

[8] = Pharmacokinetics of oral TPT in rats with zosuquidar and/or Ko143 (Table S2); settings: TPT 20 mg/kg PO + Ko143 10 mg/kg
Procedure: In the modified Taxol® formulation, TPT was prepared at a concentration of 2 mg/mL
TPT was also dissolved in isotonic saline at a concentration of
Tween® 80 was dissolved in
Oral Administration and Plasma Sampling
claims in published maps and institu-for the oral administration of TPT (20 mg/kg) with or without zosuquidar (25 mg/kg),
formulation. After drug administration, blood sampling was performed at 0, 0.05, 0.12,
The SD rats (male, 7‒8-weeks old, 235‒265 g) were divided into four groups (n = 6‒
Blood sampling was done at 0, 0.033, 0.083,
Pheonix WinNonlin ® software (version 8.0–8.1, Pharsight Corporation, Mountain
View, CA, USA) was used to estimate the PK parameters following oral TP T administra-
tion in rats. Non-compartmental analysis was performed using the plasma TPT concen-
tration–time profiles to obtain the following PK parameters: initial plasma concentration
(C0), area under the plasma concentration–time curve from zero to infinity (AUCINF), elim-
ination half-life (t1/2), apparent volume of distribution (Vd) after oral administration (Vd/F),
total clearance (Clt), and total oral clearance (Clt/F). The maximum plasma concentration
(Cmax) and the time required to reach Cmax (Tmax) were directly determined from the plasma
TPT concentration–time curve. The absolute BA (AB) and the relative BA (RB) of TPT were

T1 sequence (P08183 whole entry): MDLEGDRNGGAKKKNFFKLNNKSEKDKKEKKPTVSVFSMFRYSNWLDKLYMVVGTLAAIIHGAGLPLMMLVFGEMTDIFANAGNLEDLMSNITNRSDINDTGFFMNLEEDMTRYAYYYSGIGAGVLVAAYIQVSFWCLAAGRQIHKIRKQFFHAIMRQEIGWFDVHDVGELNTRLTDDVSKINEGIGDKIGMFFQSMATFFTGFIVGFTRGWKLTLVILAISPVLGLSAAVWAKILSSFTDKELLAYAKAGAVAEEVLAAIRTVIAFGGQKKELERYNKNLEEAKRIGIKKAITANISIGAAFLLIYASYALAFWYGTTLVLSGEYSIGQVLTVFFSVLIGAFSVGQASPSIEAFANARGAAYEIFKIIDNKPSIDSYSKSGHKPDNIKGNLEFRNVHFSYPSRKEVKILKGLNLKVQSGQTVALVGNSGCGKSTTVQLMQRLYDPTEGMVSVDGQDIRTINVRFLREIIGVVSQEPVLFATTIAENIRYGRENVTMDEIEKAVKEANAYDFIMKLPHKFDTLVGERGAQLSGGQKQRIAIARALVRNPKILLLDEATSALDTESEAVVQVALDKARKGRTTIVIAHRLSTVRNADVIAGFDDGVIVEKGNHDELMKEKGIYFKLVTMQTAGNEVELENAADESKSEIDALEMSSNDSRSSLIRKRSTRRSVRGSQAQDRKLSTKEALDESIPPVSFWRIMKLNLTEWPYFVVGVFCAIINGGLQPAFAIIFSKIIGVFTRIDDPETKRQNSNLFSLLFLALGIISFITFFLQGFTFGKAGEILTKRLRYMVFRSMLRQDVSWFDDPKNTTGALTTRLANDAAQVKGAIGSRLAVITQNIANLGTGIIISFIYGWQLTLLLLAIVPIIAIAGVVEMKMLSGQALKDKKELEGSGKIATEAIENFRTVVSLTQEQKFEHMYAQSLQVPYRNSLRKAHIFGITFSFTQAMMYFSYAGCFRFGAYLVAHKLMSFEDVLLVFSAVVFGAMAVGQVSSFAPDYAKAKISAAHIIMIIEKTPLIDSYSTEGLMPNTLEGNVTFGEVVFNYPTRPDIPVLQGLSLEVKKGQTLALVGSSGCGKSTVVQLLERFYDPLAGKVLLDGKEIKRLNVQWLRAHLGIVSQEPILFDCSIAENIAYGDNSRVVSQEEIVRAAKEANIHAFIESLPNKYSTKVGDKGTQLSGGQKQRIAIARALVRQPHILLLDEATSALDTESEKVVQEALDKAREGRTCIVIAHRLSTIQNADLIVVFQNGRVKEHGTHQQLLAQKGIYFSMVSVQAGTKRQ

For `CC[C@@]1(O)C(=O)OCc2c1cc1n(c2=O)Cc2cc3c(CN(C)C)c(O)ccc3nc2-1` [TPT, Topotecan], the “stability under physiological pH” value [1] is listed as “unstable”, the AUC(0-inf) (in vivo) is listed as 2360 ± 543 ng·h/mL and the Cmax (in vivo) is listed as 727 ± 265 ng/mL. For the same molecule, the Tmax (in vivo) was 0.5 to 1 h, the half-life [2] was 3 h and the “hepatic metabolism: amount of N-desmethyl TPT (of the total amount)” value [2] was under 7%. The “oral BA of active TPT” value [2] was “approximately 35%”, the “renal excretion (of the total administered dose)” value [2] was “approximately 40%” and the Vd/F [3] was 42.1 ± 14.1 L. The half-life [3] was 3.39 ± 1.09 h and the “in vitro activity of CYP1A2, CYP2A6, CYP2C8/9, CYP2C19, CYP2D6, CYP2E, CYP3A, or CYP4A” value [4] was “does not alter”.
For silymarin, the “Vd/F and Clt/F of PTX” value [5] is given as “decreased”.
With `O[C@@H](COc1cccc2ncccc12)CN1CCN([C@@H]2c3ccccc3[C@@H]3[C@H](c4ccccc42)C3(F)F)CC1` [zosuquidar, Zosuquidar] the “increase in DNR accumulation in P-gp-overexpressing cells” value (P-gp [6]) was “approximately three-fold increase” and the “TPT accumulation in ADR cells” value (P-gp [7]) was “no significant difference”.
For `COc1ccc2c3c([nH]c2c1)[C@H](CC(C)C)N1C(=O)[C@H](CCC(=O)OC(C)(C)C)NC(=O)[C@@H]1C3` [Ko143], the “enhanced absorption of TPT” value [8] was “>two-fold”.
